Activity calls are given as the source filed them.
Legend:
[1] = molecular target: Oxysterols receptor LXR-beta (Homo sapiens, UniProt P55055); assay type: functional, cell-based;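 also: agonist activity at LXR measured by a cell-based luminescence readout across a dose range, run as a counterscreen for daf-12 agonists; HEK293 cells with Gal4-LXR fusion and GAL4-driven luciferase reporter; potency for activation of Gal4-LXR reporter so compounds are agonists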
Caspase-6 = molecular target: T1, Caspase-6 (Homo sapiens, UniProt P55212); assay: inhibition of CASP6 peptide cleavage – biochemical, VEID-R110 fluorescence, dry powder retest, dose response (AID 743332)
T1 sequence (P55212 whole entry): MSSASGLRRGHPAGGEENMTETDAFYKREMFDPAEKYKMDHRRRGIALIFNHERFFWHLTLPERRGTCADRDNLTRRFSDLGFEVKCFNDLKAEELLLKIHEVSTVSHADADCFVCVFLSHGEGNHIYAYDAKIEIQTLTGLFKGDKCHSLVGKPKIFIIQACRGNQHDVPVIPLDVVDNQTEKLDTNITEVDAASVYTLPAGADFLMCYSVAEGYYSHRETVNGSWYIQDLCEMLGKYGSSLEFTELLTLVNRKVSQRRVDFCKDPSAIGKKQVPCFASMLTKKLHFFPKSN

[2] = molecular target: T2, RNA-binding protein pos-1 (Caenorhabditis elegans, UniProt G5EF15); assay: disruptors of C. elegans POS-1 RNA interaction – biochemical, fluorescence polarization, dose response (AID 1964);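 also: purified POS-1 fused to maltose binding protein made in E. coli; potency of compounds blocking POS-1 binding to fluorescent RNA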
T2 sequence (G5EF15 whole entry): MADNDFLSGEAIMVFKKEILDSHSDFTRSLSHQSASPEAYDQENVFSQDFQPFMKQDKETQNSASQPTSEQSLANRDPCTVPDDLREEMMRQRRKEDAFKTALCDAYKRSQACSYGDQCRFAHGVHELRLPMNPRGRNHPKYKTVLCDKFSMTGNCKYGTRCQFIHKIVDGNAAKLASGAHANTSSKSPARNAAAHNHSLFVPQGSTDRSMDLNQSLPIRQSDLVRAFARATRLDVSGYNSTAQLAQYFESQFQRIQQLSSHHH

[3] = viability loss in HepG2 liver cells – cell-based, ATP luminescence, cherry-pick, set 6, cytotoxicity control, dose response (AID 1053125); assay type: functional
[4] = molecular target: T3, Zinc finger protein mex-5 (Caenorhabditis elegans, UniProt Q9XUB2); assay: potency of MEX-5 RNA-binding blockers – biochemical, C. elegans, fluorescence polarization, dose response (AID 1960)
T3 sequence (Q9XUB2 whole entry): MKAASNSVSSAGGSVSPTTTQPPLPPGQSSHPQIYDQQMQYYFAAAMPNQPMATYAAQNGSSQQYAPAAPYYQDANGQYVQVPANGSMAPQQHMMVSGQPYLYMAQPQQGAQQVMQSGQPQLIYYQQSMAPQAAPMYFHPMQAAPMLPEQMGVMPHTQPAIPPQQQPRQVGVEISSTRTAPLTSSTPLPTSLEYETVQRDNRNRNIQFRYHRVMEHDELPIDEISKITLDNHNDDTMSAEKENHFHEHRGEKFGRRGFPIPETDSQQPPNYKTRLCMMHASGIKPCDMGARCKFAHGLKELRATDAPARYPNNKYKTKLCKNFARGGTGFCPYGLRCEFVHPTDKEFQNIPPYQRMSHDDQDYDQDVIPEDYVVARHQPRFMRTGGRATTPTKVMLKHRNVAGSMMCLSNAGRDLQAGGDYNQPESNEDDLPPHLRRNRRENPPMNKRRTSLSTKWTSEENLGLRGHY

[5] = molecular target: SWI/SNF-related matrix-associated actin-dependent regulator of chromatin subfamily A member 2 (Homo sapiens, UniProt P51531); assay: Luminescence-based cell-based high throughput dose response assay to identify activators of the function of SWI/SNF related, matrix associated, actin dependent regulator of chromatin, subfamily a, member 2 (SMARCA2, BRM).; assay type: functional
[6] = Counterscreen for activators of the function of SWI/SNF related, matrix associated, actin dependent regulator of chromatin, subfamily a, member 2 (SMARCA2, BRM): Luminescence-based cell-based high throughput dose response assay to identify non-selective compounds using the VP16 reporter assay.; assay type: functional
[7] = molecular target: Peroxisome proliferator-activated receptor gamma/Nuclear receptor coactivator 1 (Homo sapiens, UniProt P37231); assay: TR-FRET dose response biochemical High Throughput Screening assay for agonists of the steroid receptor coactivator 1 (SRC-1) recruitment by the peroxisome proliferator-activated receptor gamma (PPAR gamma): non-selective agonists. [Related pubchem assays (depositor defined):AID1300, AID1808, AID504735, AID631]; assay type: protein assay
Chain of Peroxisome proliferator-activated receptor gamma/Nuclear receptor coactivator 1 (P37231 whole entry): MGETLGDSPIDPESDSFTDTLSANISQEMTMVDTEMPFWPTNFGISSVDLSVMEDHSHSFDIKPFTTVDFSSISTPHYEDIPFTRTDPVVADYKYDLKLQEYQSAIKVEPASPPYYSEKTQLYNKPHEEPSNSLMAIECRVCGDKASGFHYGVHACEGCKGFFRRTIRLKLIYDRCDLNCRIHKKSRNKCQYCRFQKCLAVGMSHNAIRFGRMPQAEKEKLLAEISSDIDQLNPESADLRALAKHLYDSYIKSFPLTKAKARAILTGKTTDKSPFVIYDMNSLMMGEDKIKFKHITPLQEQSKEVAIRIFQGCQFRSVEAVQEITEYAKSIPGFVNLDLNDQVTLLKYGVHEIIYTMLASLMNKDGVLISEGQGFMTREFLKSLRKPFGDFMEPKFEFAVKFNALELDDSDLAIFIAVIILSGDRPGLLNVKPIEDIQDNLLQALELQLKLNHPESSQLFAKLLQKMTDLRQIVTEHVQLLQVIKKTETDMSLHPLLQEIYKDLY
Chain of Peroxisome proliferator-activated receptor gamma/Nuclear receptor coactivator 1 (Q15788 whole entry, further chain): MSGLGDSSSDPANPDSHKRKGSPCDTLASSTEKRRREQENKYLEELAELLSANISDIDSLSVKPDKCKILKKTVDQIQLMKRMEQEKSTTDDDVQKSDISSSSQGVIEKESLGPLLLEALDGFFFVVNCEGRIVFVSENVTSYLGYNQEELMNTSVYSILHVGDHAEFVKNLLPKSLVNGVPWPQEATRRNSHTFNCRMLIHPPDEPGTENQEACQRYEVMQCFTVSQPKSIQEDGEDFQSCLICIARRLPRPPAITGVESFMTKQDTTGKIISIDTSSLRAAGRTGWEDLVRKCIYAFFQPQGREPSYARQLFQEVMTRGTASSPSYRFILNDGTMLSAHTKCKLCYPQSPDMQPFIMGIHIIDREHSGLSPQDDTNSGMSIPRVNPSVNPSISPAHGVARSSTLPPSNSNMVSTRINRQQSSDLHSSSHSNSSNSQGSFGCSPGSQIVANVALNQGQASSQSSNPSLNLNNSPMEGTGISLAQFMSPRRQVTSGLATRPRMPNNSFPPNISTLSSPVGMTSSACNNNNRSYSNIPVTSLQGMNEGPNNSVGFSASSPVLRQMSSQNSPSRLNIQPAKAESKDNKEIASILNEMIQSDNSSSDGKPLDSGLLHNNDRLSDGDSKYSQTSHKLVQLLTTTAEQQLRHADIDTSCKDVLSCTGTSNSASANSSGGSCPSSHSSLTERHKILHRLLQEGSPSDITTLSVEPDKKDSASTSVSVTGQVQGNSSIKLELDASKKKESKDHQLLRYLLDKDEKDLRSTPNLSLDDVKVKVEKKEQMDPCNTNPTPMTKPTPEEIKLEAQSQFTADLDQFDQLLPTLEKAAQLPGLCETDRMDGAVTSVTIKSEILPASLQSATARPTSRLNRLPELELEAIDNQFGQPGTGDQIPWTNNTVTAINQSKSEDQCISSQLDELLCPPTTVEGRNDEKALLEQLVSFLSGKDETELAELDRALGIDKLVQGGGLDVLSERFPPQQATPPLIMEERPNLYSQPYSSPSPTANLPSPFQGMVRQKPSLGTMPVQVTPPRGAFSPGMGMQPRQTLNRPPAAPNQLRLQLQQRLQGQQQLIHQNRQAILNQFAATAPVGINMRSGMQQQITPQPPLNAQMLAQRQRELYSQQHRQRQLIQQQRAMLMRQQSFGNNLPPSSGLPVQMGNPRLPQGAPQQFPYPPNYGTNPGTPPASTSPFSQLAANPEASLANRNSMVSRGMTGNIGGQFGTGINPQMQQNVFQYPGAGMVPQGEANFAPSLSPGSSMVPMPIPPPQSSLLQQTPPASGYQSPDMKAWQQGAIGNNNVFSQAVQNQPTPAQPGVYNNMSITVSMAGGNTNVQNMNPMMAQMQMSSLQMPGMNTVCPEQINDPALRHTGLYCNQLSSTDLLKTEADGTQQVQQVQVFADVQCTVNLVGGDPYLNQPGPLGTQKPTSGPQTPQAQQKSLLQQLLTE

[8] = molecular target: Peroxisome proliferator-activated receptor gamma/Nuclear receptor coactivator 2 (Homo sapiens, UniProt P37231); assay: (§1) TR-FRET dose response biochemical High Throughput Screening assay for agonists of the steroid receptor coactivator 2 (SRC-2) recruitment by the peroxisome proliferator-activated receptor gamma (PPAR gamma): non-selective agonists. [Related pubchem assays: 1297, 1032 ]; assay type: functional
[9] = molecular target: Peroxisome proliferator-activated receptor gamma/Nuclear receptor coactivator 3 (Homo sapiens, UniProt P37231); assay: as §1, with “3 (SRC-3)” for “2 (SRC-2)”, “1301 (Confirmation screen.), 1048 (Primary screen.)]” for “1297, 1032 ]”; assay type: functional
Chain of Peroxisome proliferator-activated receptor gamma/Nuclear receptor coactivator 3 (P37231 whole entry, the tested form may be a part): as the sequence (P37231 whole entry) above
Chain of Peroxisome proliferator-activated receptor gamma/Nuclear receptor coactivator 3 (Q9Y6Q9 whole entry, further chain, the tested form may be a part): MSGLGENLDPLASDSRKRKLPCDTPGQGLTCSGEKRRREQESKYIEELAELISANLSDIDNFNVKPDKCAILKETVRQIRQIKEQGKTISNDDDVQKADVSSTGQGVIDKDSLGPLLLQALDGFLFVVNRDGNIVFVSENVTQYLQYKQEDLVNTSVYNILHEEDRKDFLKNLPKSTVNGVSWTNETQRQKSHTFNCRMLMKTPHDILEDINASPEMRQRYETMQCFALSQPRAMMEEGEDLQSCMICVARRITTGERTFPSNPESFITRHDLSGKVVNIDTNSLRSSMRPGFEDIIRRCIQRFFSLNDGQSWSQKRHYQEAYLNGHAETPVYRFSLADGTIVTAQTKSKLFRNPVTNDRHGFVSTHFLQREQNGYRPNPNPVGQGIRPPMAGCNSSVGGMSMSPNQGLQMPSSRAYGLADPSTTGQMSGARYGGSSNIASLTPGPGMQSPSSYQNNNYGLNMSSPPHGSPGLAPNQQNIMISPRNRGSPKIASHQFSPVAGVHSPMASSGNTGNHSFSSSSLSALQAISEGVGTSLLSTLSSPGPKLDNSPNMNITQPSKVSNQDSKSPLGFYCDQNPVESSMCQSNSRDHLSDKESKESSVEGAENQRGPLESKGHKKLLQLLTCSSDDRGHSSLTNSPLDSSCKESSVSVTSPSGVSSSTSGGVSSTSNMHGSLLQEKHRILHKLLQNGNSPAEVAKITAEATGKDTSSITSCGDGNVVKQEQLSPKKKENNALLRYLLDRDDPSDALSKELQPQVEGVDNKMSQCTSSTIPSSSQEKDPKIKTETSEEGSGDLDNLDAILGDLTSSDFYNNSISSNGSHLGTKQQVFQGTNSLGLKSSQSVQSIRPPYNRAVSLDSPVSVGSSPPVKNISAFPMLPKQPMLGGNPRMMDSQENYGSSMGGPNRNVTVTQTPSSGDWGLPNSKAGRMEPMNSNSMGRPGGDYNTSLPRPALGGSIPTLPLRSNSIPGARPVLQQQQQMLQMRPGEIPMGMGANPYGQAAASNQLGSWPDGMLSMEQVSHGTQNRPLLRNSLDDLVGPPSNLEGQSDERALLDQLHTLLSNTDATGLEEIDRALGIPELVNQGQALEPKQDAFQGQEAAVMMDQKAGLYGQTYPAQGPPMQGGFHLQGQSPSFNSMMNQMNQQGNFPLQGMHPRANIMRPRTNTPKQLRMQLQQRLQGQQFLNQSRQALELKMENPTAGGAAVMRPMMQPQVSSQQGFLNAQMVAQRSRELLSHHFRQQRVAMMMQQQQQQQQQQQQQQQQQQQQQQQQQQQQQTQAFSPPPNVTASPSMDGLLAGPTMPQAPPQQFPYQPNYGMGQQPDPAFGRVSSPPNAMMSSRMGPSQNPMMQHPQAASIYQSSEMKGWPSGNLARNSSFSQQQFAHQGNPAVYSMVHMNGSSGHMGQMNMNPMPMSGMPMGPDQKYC

[10] = molecular target: Photoreceptor-specific nuclear receptor (Homo sapiens, UniProt Q9Y5X4); assay type: functional, cell-based;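 also: CHO-S cells with Gal4-NCOR and VP16-NR2E3 two-hybrid luciferase reporter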
[11] = non-specific 3'UTR reporter inhibition in Clone20-Shn3RL – cell-based, Renilla luciferase, cherry-picked, counter-screen for Shn3 inhibitor project, dose response (AID 624133); assay type: functional
[12] = loss of viability in HepG2 cells – cell-based, CellTiter-Glo, cherry-picked, cytotoxicity control for Shn3 inhibitor project, dose response (AID 624134); assay type: functional
INS1 = assay: INS-1E survival protection against cytokine death – cell-based, luminescence, retest, dose response (AID 449756); assay type: functional; details: Rattus norvegicus;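 also: cell death triggered by IL-1 beta plus TNF-alpha plus IFN-gamma mixture; protective hits raise ATP signal compared with cytokine alone wells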
[13] = reduction of Shn3 3'UTR-driven luciferase in osteoblasts – cell-based, Clone20 osteoblasts, firefly luciferase, cherry-picked, dose response (AID 624132); assay type: functional;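 also: firefly luciferase luminescence from reporter carrying the Shn3 3'UTR in osteoblasts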
[14] = molecular target: Disintegrin and metalloproteinase domain-containing protein 17 (Homo sapiens, UniProt P78536); assay: exosite inhibitors of ADAM17, dose response, biochemical (AID 743260)
Chain of Disintegrin and metalloproteinase domain-containing protein 17 (P78536 whole entry, the tested form may be a part): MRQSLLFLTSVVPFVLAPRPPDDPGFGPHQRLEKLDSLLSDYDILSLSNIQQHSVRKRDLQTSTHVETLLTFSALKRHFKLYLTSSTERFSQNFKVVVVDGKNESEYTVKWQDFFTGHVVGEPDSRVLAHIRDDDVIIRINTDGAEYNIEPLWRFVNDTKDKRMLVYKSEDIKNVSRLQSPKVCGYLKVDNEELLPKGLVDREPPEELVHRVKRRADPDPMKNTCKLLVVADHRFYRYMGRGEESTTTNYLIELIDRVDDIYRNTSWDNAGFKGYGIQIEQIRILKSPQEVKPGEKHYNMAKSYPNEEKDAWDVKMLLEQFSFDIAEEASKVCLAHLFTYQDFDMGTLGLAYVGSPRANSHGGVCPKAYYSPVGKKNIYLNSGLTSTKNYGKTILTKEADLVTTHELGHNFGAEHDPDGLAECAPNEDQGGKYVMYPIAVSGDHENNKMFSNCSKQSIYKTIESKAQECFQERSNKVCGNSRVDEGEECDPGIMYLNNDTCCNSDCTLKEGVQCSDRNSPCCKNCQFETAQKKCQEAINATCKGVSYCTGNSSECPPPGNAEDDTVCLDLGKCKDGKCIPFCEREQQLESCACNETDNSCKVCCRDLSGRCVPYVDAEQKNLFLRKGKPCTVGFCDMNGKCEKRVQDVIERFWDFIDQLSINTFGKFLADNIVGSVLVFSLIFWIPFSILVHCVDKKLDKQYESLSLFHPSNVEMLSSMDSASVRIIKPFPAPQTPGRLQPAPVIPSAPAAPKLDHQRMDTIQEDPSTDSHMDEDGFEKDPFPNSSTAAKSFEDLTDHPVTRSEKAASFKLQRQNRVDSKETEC

[15] = inhibition of ADAM10 peptide cleavage – biochemical, FRET peptide substrate, recombinant human ADAM10, selectivity assay for ADAM17 exosite inhibitor project, dose response (AID 743259);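 also: ADAM10 enzyme cleaving a FRET peptide substrate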
fMet-Leu-Phe receptor = fMet-Leu-Phe receptor (Homo sapiens, UniProt P21462); assay: formyl peptide receptor binders – dose response (AID 519); assay type: functional
Chain of fMet-Leu-Phe receptor (P21462 whole entry): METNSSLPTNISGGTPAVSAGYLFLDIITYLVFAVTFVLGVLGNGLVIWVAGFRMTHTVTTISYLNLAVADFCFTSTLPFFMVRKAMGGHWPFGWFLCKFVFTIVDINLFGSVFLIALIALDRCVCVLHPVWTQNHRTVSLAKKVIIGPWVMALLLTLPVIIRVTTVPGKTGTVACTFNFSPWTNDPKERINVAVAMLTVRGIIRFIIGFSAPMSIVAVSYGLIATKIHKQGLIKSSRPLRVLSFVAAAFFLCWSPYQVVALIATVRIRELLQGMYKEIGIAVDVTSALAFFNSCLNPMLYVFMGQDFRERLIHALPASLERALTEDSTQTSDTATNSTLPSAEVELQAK

[16] = A549 cell cytotoxicity, dose response, cytotoxicity control, plate reader, cherry-pick, antagonist series (AID 743412); assay type: functional, cell-based
[17] = inhibition of bursicon-driven LGR2 cAMP signaling – cell-based, HEK293, CRE-luciferase reporter, cherry pick, dose response (AID 743342); assay type: functional
[18] = blockade of melanocortin 4 receptor signaling – cell-based, plate reader, cherry pick, counter-screen for LGR2 antagonist project, dose response (AID 743444); assay type: functional;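 also: transfected HEK 293 cells stimulated with alpha-MSH peptide; potency of inhibitors of the alpha-MSH evoked signal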
Major prion protein = Major prion protein (Homo sapiens, UniProt P04156); assay type: functional, cell-based
[19] = Late stage assay provider results from the probe development effort to identify selective inhibitors of heat shock protein 90 (HSP90): Absorbance-based cell proliferation assay in SKBR3 cells.; assay type: functional; details: SK-BR-3
[20] = Late stage assay provider results from the probe development effort to identify selective inhibitors of heat shock protein 90 (HSP90): Absorbance-based cell proliferation assay in MCF7 cells.; assay type: functional

For `Cn1c(NC(=O)CCC2CCCCC2)cc(=O)n(C)c1=O`, the EC50 [1] was > 67.5 µM (inactive).

For `N#Cc1ccc(C(=O)N2CCN(S(=O)(=O)c3ccccc3)CC2)cc1`, the AC50 (Caspase-6) was > 70 µM (inactive).

For `N#CC1=C(N)OC2=C(C(=O)CCC2)C1c1cc2c(cc1Br)OCO2` (stereo not given), the EC50 [2] was > 300 µM (not active), the AC50 [3] was > 52 µM (inactive) and the EC50 [4] was > 300 µM (not active).

For `CCn1c(=O)cc(SCC(=O)Nc2ccc(C)cn2)c2ccccc21`, the EC50 [5] was > 91.2 µM (inactive), the EC50 [6] was > 91.2 µM (inactive) and the EC50 [7] was > 79.4 µM (inactive). For the same molecule, the EC50 [8] was > 79.4 µM (not active), the EC50 [9] was > 79.4 µM (not active) and the IC50 [10] was 0.469 µM (active).

With `Cc1cccc(Oc2cc(NC(=O)c3ccccc3)cc([N+](=O)[O-])c2)c1` the AC50 [11] was 13.6 µM (active), the AC50 [12] was 45.5 µM (active) and the AC50 (INS1) was 3.57 µM (active). For the same molecule, the AC50 [13] was 3.09 µM (active), the IC50 [14] was > 69.5 µM (inactive) and the IC50 [15] was > 69.5 µM (inactive).

With `COc1cc(C2C(C(=O)c3ccco3)=C(O)C(=O)N2CCc2ccccc2)ccc1O` (stereo not given) the Ki (fMet-Leu-Phe receptor) was > 66.7 µM (inactive).

For `C[C@H]1CCCCO[C@@H](CN(C)C(=O)Nc2ccc(F)cc2)[C@@H](C)CN([C@@H](C)CO)C(=O)c2cc(NC(=O)C3CCCCC3)ccc2O1`, the AC50 [16] was 44.2 µM (active), the AC50 [17] was 3.88 µM (active) and the AC50 [18] was 66 µM (active).

With `CN(C)S(=O)(=O)c1ccc(NC(=O)CSc2ncnc3ccccc23)cc1` the IC50 (cells) was > 138 µM (inactive) and the IC50 (Major prion protein) was 16.5 µM (inactive).

In the case of `N#Cc1cc2ccc(OCCCCC(=O)O)cc2oc1=O`, the IC50 [19] is reported as > 100 µM (inactive) and the IC50 [20] is reported as > 100 µM (inactive).

Source: ChEMBL document CHEMBL1201862, “PubChem BioAssay data set” (2004)
